Results as given in patent publication US20120088661A1, “FUNGICIDAL MIXTURES” (BASF SE, priority 2009, published 2012).

Assays:
Botrytis cinerea [1] = experiment: Use Example M2: activity against the gray mold pathogen Botrytis cinerea in the microtiter test (Botrci); type: cell-based; conditions: 1 ppm
Septoria glycines = experiment: Use Example M8: activity against Septoria glycines in the microtiter test (Septgl); type: cell-based
Septoria tritici = experiment: Use Example G5: greenhouse, protective activity against Septoria leaf blotch of wheat caused by Septoria tritici (Septtr P1); type: in vivo, Septoria tritici on wheat seedlings
Protocol: (§1) The active compounds were prepared separately or jointly as a stock solution with 25 mg of active compound which was made up to 10 ml using a mixture of acetone and/or DMSO and the emulsifier Wettol EM 31 (wetting agent having emulsifying and dispersing action based on ethoxylated alkylphenols) in a volume ratio of solvent:emulsifier of 99:1. The mixture was then made up with water to 100 ml. This stock solution was diluted with the solvents/emulsifier/water mixture described to give the active compound concentrations stated below. Alternatively, the active compounds were used as commercial finished formulation and diluted with water to the stated active compound concentration. The active compound orysastrobin was used as a commercially available formulation, and diluted with water with reference to the active compound.
(§2) The visually determined values for the percentage of infected leaf area were initially converted into a mean value and then converted into efficacies in % of the untreated control. An efficacy of 0 means the same degree of infection as in the untreated control, an efficacy of 100 means 0% infection. The expected efficacies for the active compound combinations were determined using Colby's formula (Colby, S. R. “Calculating synergistic and antagonistic responses of herbicide combinations”, Weeds, 15, pp. 20-22, 1967) and compared to the observed efficacies.
Leaves of potted wheat seedlings were sprayed to run off point with an aqueous suspension having the active compound concentration stated below. 24 hours after the spray coating had dried on, they were inoculated with an aqueous spore suspension of Septoria tritici. The test plants were then placed in a greenhouse at temperatures between 18 and 22° C. and a relative atmospheric humidity close to 100% for four days and then at temperatures between 18 and 22° C. and an atmospheric humidity of about 70%. After 21 days, the extent of the development of the disease was determined visually in % infection of the total leaf area.

Phytophthora infestans = experiment: microbe, parasite or virus in culture; type: cell-based; conditions: Phytophthora infestans; for inhibition of growth at 1 ppm: read-out: Observed effect, 1 ppm
Puccinia recondita = experiment: Use Example G3: greenhouse, protective activity against Puccinia recondita on wheat (brown rust of wheat) (Puccrt P1); type: in vivo, Puccinia recondita on wheat seedlings
Protocol: as §1, with “The active compound orysastrobin was used as a commercially available formulation, and diluted with water with reference to the active compound.” left out
The visually determined values for the percentage of infected leaf area were initially converted into a mean value and then converted into efficacies in % of the untreated control. […] The expected efficacies for the active compound combinations were determined using Colby's formula (Colby, S. R. “Calculating synergistic and antagonistic responses of herbicide combinations”, Weeds, 15, pp. 20-22, 1967) and compared to the observed efficacies.
Leaves of potted wheat seedlings were sprayed to run off point with an aqueous suspension having the active compound concentration stated below. […] The extent of rust fungus development on the leaves was then determined visually.

Phakopsora pachyrhizi = experiment: Use Example G4: greenhouse, curative activity against soybean rust caused by Phakopsora pachyrhizi (Phakpa K4); type: in vivo, Phakopsora pachyrhizi on soybean seedlings
Protocol: as §1, §2
Leaves of potted soybean seedlings were inoculated with a spore suspension of soybean rust (Phakpsora pachyrhizi). The pots were then placed in a chamber of high atmospheric humidity (90 to 95%) and 20 to 24° C. for 24 hours. During this time, the spores germinated and the germ tubes penetrated into the leaf tissue. The infected plants were then cultivated further in a greenhouse at temperatures between 23 and 27° C. and 60 to 80% relative atmospheric humidity. After three days, the plants were sprayed to run off point with the active compound solution described above at the active compound concentration stated below. After the spray coating had dried on, the test plants were cultivated in a greenhouse at temperatures between 23 and 27° C. and 60 to 80% relative atmospheric humidity for a further 10 days. The extent of the rust fungus development on the leaves was then determined visually in %.

Colleotrichum truncatum = experiment: Use Example M9: activity against Colleotrichum truncatum in the microtiter test (Colltr); type: cell-based
Alternaria solani = type: in vivo, Alternaria solani on tomato plants; conditions: 16 ppm
Botrytis cinerea [2] = experiment: Use Example G2: greenhouse, activity against grey mold on bell pepper leaves caused by Botrytis cinerea, 1 day protective application (Botrci P1); type: in vivo, Botrytis cinerea on bell pepper seedlings; conditions: 250 ppm
Protocol: as §1, §2
Bell pepper seedlings were, after 2-3 leaves were well developed, sprayed to run off point with an aqueous suspension having the active compound concentrations stated below. The next day, the treated plants were inoculated with a spore suspension of Botrytis cinerea in a 2% biomalt solution. The test plants were then placed in a dark climatized chamber at 22 to 24° C. and high atmospheric humidity. After 5 days, the extent of the fungal infection on the leaves could be determined visually in %.

[3] = Septoria glycines, 0.016 ppm, read-out: Observed effect
[4] = Septoria glycines, 1 ppm, read-out: Observed effect

## N#Cc1c(Cl)c(Cl)c(Cl)c(C#N)c1Cl [II-21, chlorothalonil]
Botrytis cinerea [1]
  Observed effect: 40%
Septoria glycines; Septoria glycines, 0.063 ppm, read-out: Observed effect
  inhibition of growth at […]: 6%
Septoria tritici; 4 ppm
  Observed effect: 0%

## O=C(Nc1ccccc1-c1ccc(Cl)cc1)c1cccnc1Cl [II-24, boscalid]
Phytophthora infestans; read-out: Observed effect, 16 ppm
  inhibition of growth at 16 ppm: 20%
Septoria glycines; [3]
  inhibition of growth at 0.016 ppm: 10%
Septoria glycines; Septoria glycines, 0.04 ppm, read-out: Observed effect
  inhibition of growth at 0.04 ppm: 9%
Puccinia recondita; 1 ppm
  Observed effect: 13%

## Cc1ccc(C(C)NC(=O)[C@@H](NC(=O)OC(C)C)C(C)C)cc1 (stereo partly shown) [II-35, iprovalicarb]
Septoria glycines; 1 ppm
  Observed effect: 3%

## Cc1cc(C2CC2)nc(Nc2ccccc2)n1 [II-36, cyprodinil]
Septoria tritici; 4 ppm
  Observed effect: 0%

## N#Cc1c[nH]cc1-c1cccc2c1OC(F)(F)O2 [II-38, fludioxonil]
Phytophthora infestans
  inhibition of growth at 1 ppm: 27%

## O=[N+]([O-])c1cc(C(F)(F)F)c(Cl)c([N+](=O)[O-])c1Nc1ncc(C(F)(F)F)cc1Cl [II-40, fluazinam]
Phytophthora infestans
  inhibition of growth at 1 ppm: 24%
Septoria glycines; [3]
  inhibition of growth at 0.016 ppm: 7%
Septoria glycines; [4]
  inhibition of growth at 1 ppm: 24%

## CCCN(CCOc1c(Cl)cc(Cl)cc1Cl)C(=O)n1ccnc1 [II-46, prochloraz]
Septoria glycines; Septoria glycines, read-out: Observed effect
  inhibition of growth at 0.001 ppm: 11%
Phakopsora pachyrhizi; 1 ppm
  Observed effect: 7%
Septoria tritici; 1 ppm
  Observed effect: 0%

## N#Cc1sc2c(=O)c3ccccc3c(=O)c=2sc1C#N [II-47, dithianon]
Septoria glycines; Septoria glycines, 0.004 ppm, read-out: Observed effect
  inhibition of growth at 0.004 ppm: 3%
Septoria glycines; [3]
  inhibition of growth at 0.016 ppm: 37%
Colleotrichum truncatum; 0.016 ppm
  Observed effect: 3%

## CO/C=C(/C(=O)OC)c1ccccc1Oc1cc(Oc2ccccc2C#N)ncn1 [II-49, azoxystrobin]
Septoria glycines; 0.016 ppm
  Observed effect: 20%

## CO/N=C(/C1=NOCCO1)c1ccccc1Oc1ncnc(Oc2ccccc2Cl)c1F [II-57, fluoxastrobin]
Phakopsora pachyrhizi; 1 ppm
  Observed effect: 15%

## COC(=O)C(C)N(C(=O)Cc1ccccc1)c1c(C)cccc1C (stereo not shown) [benalaxyl]
Alternaria solani
  Observed effect: 2%
Septoria tritici; 250 ppm
  Observed effect: 0%

## O=C1C2CC=CCC2C(=O)N1SC(Cl)(Cl)Cl (stereo not shown) [captan]
Phakopsora pachyrhizi; 1 ppm
  Observed effect: 0%
Phakopsora pachyrhizi; 4 ppm
  Observed effect: 0%
Septoria tritici; 16 ppm
  Observed effect: 0%

## CCNC(=O)NC(=O)/C(C#N)=N/OC [cymoxanil]
Septoria glycines; Septoria glycines, 16 ppm, read-out: Observed effect
  inhibition of growth at 16 ppm: 27%

## OC(c1ccc(Cl)cc1)(c1cncnc1)c1ccccc1Cl (stereo not shown) [fenarimol]
Phytophthora infestans; read-out: Observed effect, 0.016 ppm
  inhibition of growth at 0.016 ppm: 5%
Phytophthora infestans
  inhibition of growth at 1 ppm: 28%
Septoria glycines; [3]
  inhibition of growth at 0.016 ppm: 11%
Septoria glycines; [4]
  inhibition of growth at 1 ppm: 39%

## COc1ccc(/C(=C\C(=O)N2CCOCC2)c2ccc(F)cc2)cc1OC [flumorph]
Septoria glycines; 16 ppm
  Observed effect: 21%

## CC(C)NC(=O)N1CC(=O)N(c2cc(Cl)cc(Cl)c2)C1=O [iprodion]
Colleotrichum truncatum; 1 ppm
  Observed effect: 9%

## mancozeb [II-18]
Alternaria solani
  Observed effect: 0%
Botrytis cinerea [2]
  Observed effect: 15%
Puccinia recondita; 4 ppm
  Observed effect: 5%
Phakopsora pachyrhizi; 16 ppm
  Observed effect: 7%
Phakopsora pachyrhizi; 63 ppm
  Observed effect: 0%
Septoria tritici; 16 ppm
  Observed effect: 3%
Septoria tritici; 63 ppm
  Observed effect: 18%
